# Tests used:
# Assay in all cases: relative viability (nuclei count vs DMSO), 5 days (fraction); higher = more cells survive
# [1] = compound: CC1=NC=CC(=C1)C2=CC=C(C=C2)CC(=O)NC3=CC=C(C=C3)C4=CN=CC=C4 [Wnt-C59] + O=C(CCCCCCC(=O)Nc1ccccc1)NO [Vorinostat] (partner 1 µM)
# Procedure, shortened: (§1)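 Dosing by pin tool came one day after lung cancer cell lines were seeded in 1536-well plates, using either one drug or a fixed anchor-drug dose plus five library-drug doses (not always all listed) in √10 steps. After 5 days, nuclei were counted on 4× images. Relative viability is treated-well nuclei count divided by vehicle-well nuclei count, and values are medians of duplicate plates.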
# [2] = compound: CC1=NC=CC(=C1)C2=CC=C(C=C2)CC(=O)NC3=CC=C(C=C3)C4=CN=CC=C4 [Wnt-C59] + O=C(c1cc(Cc2n[nH]c(=O)c3ccccc23)ccc1F)N1CCN(C(=O)C2CC2)CC1 [Olaparib] (partner 8 µM)
# Procedure, shortened: as §1
# [3] = compound: CC1=NC=CC(=C1)C2=CC=C(C=C2)CC(=O)NC3=CC=C(C=C3)C4=CN=CC=C4 [Wnt-C59] + Nc1nc2[nH]cc(CCc3ccc(C(=O)N[C@@H](CCC(=O)O)C(=O)O)cc3)c2c(=O)[nH]1 [Pemetrexed] (partner 0.2 µM)
# Procedure, shortened: as §1
# [4] = compound: CC1=NC=CC(=C1)C2=CC=C(C=C2)CC(=O)NC3=CC=C(C=C3)C4=CN=CC=C4 [Wnt-C59] + COc1cccc2cc(-c3nc([C@H]4CC[C@H](C(=O)O)CC4)n4ncnc(N)c34)[nH]c12 [OSI-027] (partner 0.5 µM)
# Procedure, shortened: as §1
Cell Line,relative viability ([1]; first compound 0.001 µM),relative viability ([1]; first compound 0.01 µM),relative viability ([1]; first compound 0.03162 µM),relative viability ([1]; first compound 0.1 µM),relative viability ([2]; first compound 0.001 µM),relative viability ([2]; first compound 0.01 µM),relative viability ([2]; first compound 0.03162 µM),relative viability ([2]; first compound 0.1 µM),relative viability ([3]; first compound 0.001 µM),relative viability ([3]; first compound 0.01 µM),relative viability ([3]; first compound 0.03162 µM),relative viability ([3]; first compound 0.1 µM),relative viability ([4]; first compound 0.001 µM),relative viability ([4]; first compound 0.01 µM),relative viability ([4]; first compound 0.03162 µM),relative viability ([4]; first compound 0.1 µM)
NCI-H1915,0.487,0.492,0.629,0.526,0.256,0.266,0.248,0.239,0.502,0.464,0.517,0.505,0.667,0.578,0.529,0.692
Calu-6,,,,,0.572,0.576,0.698,0.614,,,,,,,,
LU99A,0.486,0.474,0.484,0.442,0.28,0.264,0.29,0.23,0.205,0.195,0.178,0.195,0.307,0.281,0.342,0.274
LOU-NH91,0.868,0.864,0.886,0.978,0.966,0.873,0.955,0.883,0.386,0.384,0.345,0.38,0.76,0.571,0.718,0.738
NCI-H1993,0.78,0.758,0.978,0.394,1.17,1.06,1.11,0.413,0.67,0.591,0.609,0.625,0.582,,0.57,0.544
NCI-H1703,,,,,0.507,0.368,0.611,0.322,,,,,,,,
NCI-H2405,1,1.05,1.15,1.17,0.851,0.879,0.898,0.861,1.02,1.01,0.989,1.08,0.633,0.554,0.579,0.476
NCI-H661,0.815,0.726,0.854,0.755,0.739,0.73,0.797,0.698,0.884,0.878,0.91,0.884,0.719,0.699,0.803,0.758
COR-L 105,0.991,0.71,0.877,0.857,0.708,0.727,0.684,0.656,1.13,0.887,1.14,1.15,0.916,0.696,0.635,0.632
NCI-H1437,0.838,0.806,0.829,0.8,0.626,0.629,0.62,0.605,0.36,0.299,0.31,0.331,0.859,0.927,0.859,0.911
NCI-H1563,,,,,,,,,0.736,0.751,0.723,0.705,0.711,0.784,0.761,0.728
NCI-H2009,0.722,0.679,0.758,0.712,0.644,0.765,0.734,0.727,0.988,1.11,1.07,1.04,0.699,0.701,0.695,0.64
NCI-H23,0.499,0.541,0.737,0.59,0.353,0.256,0.362,0.333,0.589,0.595,0.59,0.703,0.634,0.499,0.781,0.578
201T,0.979,0.991,1.03,0.983,0.845,0.884,0.841,0.867,0.357,0.326,0.311,0.36,0.717,0.725,0.761,0.627
NCI-H520,0.742,0.683,0.686,0.634,0.299,0.313,0.381,0.357,0.655,0.626,0.787,0.682,0.256,0.339,0.3,0.252
NCI-H1623,,,,,,,,,,,,,0.429,0.383,0.416,0.453
A-427,0.851,0.878,0.874,0.895,0.767,0.79,0.751,0.789,0.936,1.04,0.994,1.1,0.479,0.457,0.478,0.503
NCI-H1975,0.727,0.76,0.756,0.706,0.797,0.807,0.786,0.869,0.321,0.307,0.288,0.311,0.685,0.555,0.855,0.713
NCI-H647,0.577,0.582,0.957,0.585,0.579,0.539,0.762,0.513,0.162,0.158,0.201,0.178,0.644,0.763,0.779,0.676
NCI-H3122,1.05,1.05,0.989,0.971,0.633,0.549,0.637,0.504,0.219,0.216,0.197,0.195,1.02,0.978,1.32,0.891
A549,,,,,0.302,0.321,0.357,0.332,,,,,,,,
NCI-H1299,,,,,0.918,0.953,0.932,0.937,,,,,,,,
HCC-44,1.16,1.02,1.13,1.12,0.981,1.02,0.965,0.92,0.619,0.647,0.64,0.629,0.768,0.671,0.538,0.608
NCI-H838,0.709,0.704,0.786,0.708,0.765,0.806,0.807,0.739,0.235,0.24,0.267,0.242,0.435,0.385,0.331,0.411
